Assay results reported in PubChem BioAssay (NCI).
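The compound was tested at five concentrations on cells cultured in 96-well plates, with a 48-hour exposure period. GI50 is the concentration that inhibits growth by half. TGI marks complete inhibition of growth.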

Assays:
Test in all cases: NCI-60 cell line screen, 48 h
MDA-MB-231 breast = tested on: MDA-MB-231 breast
MOLT-4 leukemia = tested on: MOLT-4 leukemia
EKVX NSCLC = tested on: EKVX NSCLC
HOP-62 NSCLC = tested on: HOP-62 NSCLC
786-0 renal = tested on: 786-0 renal
OVCAR-4 ovarian = tested on: OVCAR-4 ovarian
SK-MEL-2 melanoma = tested on: SK-MEL-2 melanoma
UO-31 renal = tested on: UO-31 renal
LOX IMVI melanoma = tested on: LOX IMVI melanoma
NCI-H460 lung = tested on: NCI-H460 lung

Row | Structure (SMILES) | GI50 (MDA-MB-231 breast) | TGI (MDA-MB-231 breast) | GI50 (MOLT-4 leukemia) | TGI (MOLT-4 leukemia) | GI50 (EKVX NSCLC) | TGI (EKVX NSCLC) | GI50 (HOP-62 NSCLC) | TGI (HOP-62 NSCLC) | GI50 (786-0 renal) | TGI (786-0 renal) | GI50 (OVCAR-4 ovarian) | TGI (OVCAR-4 ovarian) | GI50 (SK-MEL-2 melanoma) | TGI (SK-MEL-2 melanoma) | GI50 (UO-31 renal) | TGI (UO-31 renal) | GI50 (LOX IMVI melanoma) | TGI (LOX IMVI melanoma) | GI50 (NCI-H460 lung) | TGI (NCI-H460 lung)
1 | COC(=O)COc1ccc(/C=C2/N=C(c3ccccc3)N(c3c(C)n(C)n(-c4ccccc4)c3=O)C2=O)cc1 | 21.8 µM | 45.1 µM | 23 µM | 59.8 µM | 37.8 µM | > 100 µM | 31.7 µM | 97.7 µM | 19.7 µM | 37 µM | 26.5 µM | 70.9 µM | 19.1 µM | 38 µM | 17 µM | 32.3 µM | 18 µM | 32.8 µM | 26 µM | > 100 µM
2 | CC1=Cc2ccc(C)cc2C(=O)C1=O | – | 59.6 µM | – | 6.13 µM | – | 42.3 µM | – | 57 µM | – | 3.81 µM | – | 32 µM | – | 52.9 µM | – | 3.04 µM | – | 20.7 µM | – | 41 µM
3 | C=C1CCC2(C#N)[C@H]3[C@H](CC[C@@H]2C)[C@@H](C)C[C@@H](CC(C)(C)NC(=O)CN2CCC2=O)[C@H]13 (stereo not given in full) | 7.97 µM | 44.3 µM | 13.8 µM | 70.3 µM | 6.42 µM | > 100 µM | 12.3 µM | 29 µM | 13.7 µM | 37.8 µM | 8.9 µM | > 100 µM | 15.8 µM | 35.6 µM | 10.2 µM | 77.1 µM | 6.17 µM | 19.7 µM | 7.81 µM | 20.5 µM
4 | O=C1/C(=C/c2ccccc2)CN(C(=O)CCN2CCCC2)C/C1=C\c1ccccc1 | – | 3.78 µM | – | 1.68 µM | – | 7.15 µM | – | 16 µM | – | 1.94 µM | – | 4.78 µM | – | 8.41 µM | – | 7.73 µM | – | 1.85 µM | – | 4.52 µM
5 | C=C1C(=O)OC2CC(C)C3CC(O)OC(OCC)C3(C)CC12 (stereo not given) | – | 34.8 µM | – | 56.4 µM | – | > 62.2 µM | – | 47.6 µM | – | 25.1 µM | – | 50.3 µM | – | 29.8 µM | – | 53.7 µM | – | 17.4 µM | – | 38.6 µM
6 | Cc1nc(Nc2ccccn2)sc1C(=O)/C=C/c1ccc(Cl)cc1 | 0.366 µM | 3.58 µM | 0.592 µM | > 100 µM | 0.846 µM | > 100 µM | 0.574 µM | > 100 µM | 0.549 µM | > 47.2 µM | 0.778 µM | > 100 µM | 1.36 µM | > 100 µM | 0.662 µM | 15 µM | 0.458 µM | > 40.8 µM | 0.353 µM | > 100 µM
7 | O=c1/c(=C\c2ccc(F)cc2)sc2n1C(c1ccc(F)cc1)C1=C(N=2)c2ccc3ccccc3c2OCC1 (stereo not given) | > 100 µM | > 100 µM | > 100 µM | > 100 µM | > 100 µM | > 100 µM | > 100 µM | > 100 µM | > 100 µM | > 100 µM | > 100 µM | > 100 µM | > 100 µM | > 100 µM | > 100 µM | > 100 µM | > 100 µM | > 100 µM | 14.2 µM | > 100 µM
8 | Cc1c2c(c(C)c3c4c(oc13)CCCC4)C=NCC2 | – | 32.9 µM | – | 45.1 µM | – | 32 µM | – | 60.6 µM | – | > 100 µM | – | 54.8 µM | – | 31.2 µM | – | 25.8 µM | – | 38.3 µM | – | 31.2 µM
9 | CCN(c1cc(-c2ccc(CN3CCOCC3)cc2)cc(C(=O)NCc2c(C)cc(C)[nH]c2=O)c1C)C1CCOCC1 | 20.4 µM | 44.7 µM | 21.6 µM | 93.8 µM | 33.6 µM | > 100 µM | 30.7 µM | 99.2 µM | 17.1 µM | 40.7 µM | 25.9 µM | 97.2 µM | 16.6 µM | 35.8 µM | 14.9 µM | > 51.3 µM | 15.9 µM | 30.3 µM | 25.5 µM | > 66.8 µM
10 | CN(C)c1nc2ccccc2c2c1c1c(n2Cc2ccccc2)-c2ccccc2C1=O | > 100 µM | > 100 µM | 25.5 µM | > 100 µM | > 100 µM | > 100 µM | > 100 µM | > 100 µM | > 100 µM | > 100 µM | 31.3 µM | > 100 µM | > 100 µM | > 100 µM | > 100 µM | > 100 µM | > 100 µM | > 100 µM | > 100 µM | > 100 µM
11 | Cc1nc2ccc(NC(=O)CCNC(=O)CCCc3ccc(CC(C(=O)O)C(=O)O)cc3)cc2s1 | > 100 µM | > 100 µM | > 100 µM | > 100 µM | > 100 µM | > 100 µM | > 100 µM | > 100 µM | > 100 µM | > 100 µM | > 100 µM | > 100 µM | > 100 µM | > 100 µM | > 100 µM | > 100 µM | > 100 µM | > 100 µM | > 100 µM | > 100 µM
12 | Cn1cc(-c2ccc3nnc(Sc4ccc5ncccc5c4)n3n2)cn1 | 24.4 µM | 96.9 µM | > 100 µM | > 100 µM | 97 µM | > 100 µM | 30.9 µM | > 100 µM | > 100 µM | > 100 µM | > 100 µM | > 100 µM | 48.4 µM | > 100 µM | 61.9 µM | > 100 µM | 57.8 µM | > 100 µM | 79.2 µM | > 100 µM
13 | Cc1nc(Nc2cccnc2)sc1C(=O)/C=C/c1ccc(Cl)cc1 | 4.7 µM | > 100 µM | 3.49 µM | > 100 µM | 6.99 µM | > 100 µM | 2.56 µM | 7.6 µM | 1.95 µM | 6.48 µM | 5.14 µM | > 100 µM | 3.97 µM | 18.3 µM | 1.81 µM | 4.61 µM | 1.83 µM | 3.75 µM | 3.5 µM | 13.8 µM
14 | COC(=O)C1C(O)C(C)C(O)C(C)C=C(C)C2=C3C(=C(C)C(=O)c4c(O)c(c(C)c(OC(C)=O)c43)NC(=O)C(C)=C/C=C\C(C)C(O)C(C)C1O)OCO2 (stereo not given) | – | 77.6 µM | – | 51.4 µM | – | > 100 µM | – | > 100 µM | – | > 100 µM | – | > 100 µM | – | 74.2 µM | – | > 100 µM | – | 43 µM | – | > 100 µM
15 | COc1cc2c(cc1O)CC1c3c(cc(O)c(OC)c3-2)CCN1C (stereo not given) | – | > 100 µM | – | > 100 µM | – | > 100 µM | – | > 100 µM | – | > 100 µM | – | > 100 µM | – | > 100 µM | – | > 100 µM | – | > 100 µM | – | > 100 µM
16 | C1CC2CN(CCCN3CCOCC3)C(C1)O2 (stereo not given) | – | > 100 µM | – | > 100 µM | – | > 100 µM | – | > 100 µM | – | > 100 µM | – | > 100 µM | – | > 100 µM | – | > 100 µM | – | > 100 µM | – | > 100 µM
17 | Cc1cc(O)c(C2=NN(c3ccc(S(N)(=O)=O)cc3)C(c3ccc(Cl)cc3)C2)c(C)c1Cl (stereo not given) | 2.34 µM | 11.8 µM | 1.94 µM | 7.25 µM | 1.88 µM | 13.6 µM | 10.4 µM | 23.3 µM | 4.97 µM | 17.4 µM | 7.69 µM | 21.2 µM | 11.9 µM | 27.6 µM | 3.78 µM | 19.2 µM | 2.34 µM | 6.98 µM | 2.53 µM | 7.24 µM
18 | COc1cc2c(cc1OCCCCCCN1CCN(CC(=O)Nc3ccc(Cl)cc3C(=O)c3ccccc3Cl)CC1)N=CC1CCCN1C2=O (stereo not given) | 0.383 µM | 1.07 µM | 0.167 µM | 0.426 µM | 0.477 µM | 1.14 µM | 0.146 µM | 0.294 µM | 0.339 µM | 0.823 µM | 0.419 µM | 1.25 µM | 0.217 µM | 0.556 µM | 0.242 µM | 0.681 µM | 0.157 µM | 0.305 µM | 0.18 µM | 0.334 µM
19 | C1CC[N-]CC1.CC(=N\O)/C(C)=N/O.CC(=N\O)/C(C)=N/O.OC1[CH-]CCCC1.[Co+2] | > 100 µM | > 100 µM | 26.4 µM | 99.1 µM | 31.1 µM | > 100 µM | > 100 µM | > 100 µM | 61.8 µM | > 100 µM | 72.7 µM | > 100 µM | 23.9 µM | 59.7 µM | > 100 µM | > 100 µM | 36.4 µM | > 100 µM | 30.8 µM | > 100 µM
